Experimental data published in patent US5061794A, “Cephalosporin derivatives, and antibacterial agents” (priority 1986, dated 1991).
Structures can show the parent of a compound that is named as a salt. Where two headings read alike, the source gives them in different places.

How the values were obtained:
E. cloacae 963 = assay: in vitro antibacterial activity, agar plate dilution method (MIC); format: cell-based; details: 10^6 CFU/ml
Procedure, shortened: (§1)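 Agar dilution: MH agar + graded drug conc.; inoculum 10^6 CFU/ml (overnight MH broth culture, one loopful); 37° C., 16 h; MIC, μg/ml.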

M. morganii GN5407 = assay: as above; format: cell-based; details: Morganella morganii, GN5407, 16 h, read-out: Minimum Inhibitory Concentration (MIC), *M. morganii GN5407, lactamase-producing strain; 10^6 CFU/ml
Procedure, shortened: as §1

E. cloacae Nek 39 = assay: as above; format: cell-based; details: Enterobacter cloacae, NEK39, 16 h, read-out: Minimum Inhibitory Concentration (MIC), *E. cloacae Nek 39, lactamase-producing strain; 10^6 CFU/ml
Procedure, shortened: as §1

K. oxytoca GN10650 = assay: as above; format: cell-based; details: Klebsiella oxytoca, GN10650, 16 h, read-out: Minimum Inhibitory Concentration (MIC), *K. oxytoca GN10650, lactamase-producing strain; 10^6 CFU/ml
Procedure, shortened: as §1

P. vulgaris No. 33 = assay: as above; format: cell-based; details: Proteus vulgaris, NO.33, 16 h, read-out: Minimum Inhibitory Concentration (MIC), *P. vulgaris No. 33, lactamase-producing strain; 10^6 CFU/ml
Procedure, shortened: as §1

S. aureus 209P NIHJ-JC1 = assay: as above; format: cell-based; details: Staphylococcus aureus, 16 h
Procedure, shortened: as §1

P. vulgaris HX-19 = assay: as above; format: cell-based; details: Proteus vulgaris, HX19, 16 h, P. vulgaris HX-19; 10^6 CFU/ml; read-out: Minimum Inhibitory Concentration (MIC)
Procedure, shortened: as §1

K. pneumoniae PCI-602 = assay: as above; format: cell-based; details: Klebsiella pneumoniae, PCI602, 16 h, read-out: Minimum Inhibitory Concentration (MIC), K. pneumoniae PCI-602; 10^6 CFU/ml
Procedure, shortened: as §1

S. marcescens No. 16-2 = assay: as above; format: cell-based; details: Serratia marcescens, NO.162, 16 h
Procedure, shortened: as §1

K. pneumoniae No. 42 = assay: as above; format: cell-based; details: Klebsiella pneumoniae, 10^6 CFU/ml
Procedure, shortened: as §1

S. marcescens IAM 1184 = assay: as above; format: cell-based; details: Serratia marcescens, IAM1184, 16 h, read-out: Minimum Inhibitory Concentration (MIC)
Procedure, shortened: as §1

E. coli NIHJ JC2 = assay: as above; format: cell-based; details: Escherichia coli, NIHJJC2, 16 h, read-out: Minimum Inhibitory Concentration (MIC), E. coli NIHJ JC2, 10^6 CFU/ml, 37° C.
Procedure, shortened: as §1

E. coli GN5482 = assay: as above; format: cell-based; details: Escherichia coli, GN5482, 16 h
Procedure, shortened: as §1

Ps. cepacia 23 = assay: as above; format: cell-based, Pseudomonas cepacia; details: read-out: Minimum Inhibitory Concentration (MIC)
Procedure, shortened: as §1

A. calcoaceticus No. 4 = assay: as above; format: cell-based, Acinetobacter calcoaceticus; details: Acinetobacter calcoaceticus, NO.4, 16 h, 10^6 CFU/ml
Procedure, shortened: as §1

E. coli CSH2 (RK1) = assay: microbe, parasite or virus in culture; format: cell-based; details: Escherichia coli, 16 h, read-out: Minimum Inhibitory Concentration (MIC), *E. coli CSH2 (RK1), lactamase-producing strain; 10^6 CFU/ml
Procedure, shortened: as §1

E. coli CSH(RE45) = assay: microbe, parasite or virus in culture; format: cell-based; details: Escherichia coli, 16 h, read-out: Minimum Inhibitory Concentration (MIC), *E. coli CSH(RE45), lactamase-producing strain; 10^6 CFU/ml
Procedure, shortened: as §1

Ps. aeruginosa AK 109 = assay: in vitro antibacterial activity, agar plate dilution method (MIC); format: cell-based, Pseudomonas aeruginosa; details: Pseudomonas aeruginosa, AK109, 16 h
Procedure, shortened: as §1

Ps. aeruginosa AKR17 = assay: as above; format: cell-based, Pseudomonas aeruginosa; details: Pseudomonas aeruginosa, 10^6 CFU/ml
Procedure, shortened: as §1

Ps. aeruginosa IF03445 = assay: as above; format: cell-based, Pseudomonas aeruginosa; details: Pseudomonas aeruginosa, IF03445, 16 h, read-out: Minimum Inhibitory Concentration (MIC), Ps. aeruginosa IF03445; 10^6 CFU/ml
Procedure, shortened: as §1

[1] = Enterobacter cloacae, 963, 16 h, read-out: Minimum Inhibitory Concentration (MIC), E. cloacae 963
[2] = read-out: Minimum Inhibitory Concentration (MIC), S. aureus 209P NIHJ-JC1, 10^6 CFU/ml, 37° C., 16 hours
[3] = read-out: Minimum Inhibitory Concentration (MIC)
[4] = read-out: Minimum Inhibitory Concentration (MIC), A. calcoaceticus No. 4
[5] = Ps. aeruginosa AK 109, 10^6 CFU/ml, read-out: Minimum Inhibitory Concentration (MIC)
[6] = 16 h, Ps. aeruginosa AKR17, read-out: Minimum Inhibitory Concentration (MIC)
[7] = Enterobacter cloacae, 16 h, E. cloacae 963, read-out: Minimum Inhibitory Concentration (MIC)
[8] = NO.42, 16 h, read-out: Minimum Inhibitory Concentration (MIC), *K. pneumoniae No. 42, lactamase-producing strain
[9] = S. marcescens IAM 1184, 10^6 CFU/ml
[10] = read-out: Minimum Inhibitory Concentration (MIC), *E. coli GN5482, lactamase-producing strain, 10^6 CFU/ml
[11] = Burkholderia cepacia, 16 h, Ps. cepacia 23, 10^6 CFU/ml
[12] = read-out: Minimum Inhibitory Concentration (MIC), *S. marcescens No. 16-2, lactamase-producing strain, 10^6 CFU/ml

C#CCO/N=C(\C(=O)N[C@@H]1C(=O)N2C(C(=O)O)=C(CSc3nnc(-c4ccc(O)c(O)c4)s3)CS[C@H]12)c1csc(N)n1 [Ex. 31, sodium 7β-[2-(2-aminothiazol-4-yl)-2-proparqyloxyiminoacetamido]-3-[5-(3,4-dihvdroxyphenyl)-1,3,4-thiadiazol-2-yl]thiomethyl-3-cephem-4-carboxylate]
MIC (E. cloacae 963; [1]): 0.0125 µg/mL
MIC (M. morganii GN5407): 0.0125 µg/mL
MIC (E. cloacae Nek 39): 0.2 µg/mL
MIC (K. oxytoca GN10650): 0.78 µg/mL
MIC (P. vulgaris No. 33): 0.025 µg/mL
MIC (S. aureus 209P NIHJ-JC1; [2]): 0.78 µg/mL
MIC (P. vulgaris HX-19): < 0.006 µg/mL
MIC (K. pneumoniae PCI-602): < 0.006 µg/mL
MIC (S. marcescens No. 16-2; [3]): 0.39 µg/mL
MIC (K. pneumoniae No. 42; 16 h, *K. pneumoniae No. 42, lactamase-producing strain, read-out: Minimum Inhibitory Concentration (MIC)): < 0.006 µg/mL
MIC (S. marcescens IAM 1184): 0.0125 µg/mL
MIC (E. coli NIHJ JC2): 0.1 µg/mL
MIC (E. coli GN5482; [3]): 0.39 µg/mL
MIC (Ps. cepacia 23; Burkholderia cepacia, 23, 16 h): 0.0125 µg/mL
MIC (A. calcoaceticus No. 4; [4]): 0.1 µg/mL
MIC (E. coli CSH2 (RK1)): < 0.006 µg/mL
MIC (E. coli CSH(RE45)): 0.0125 µg/mL
MIC (Ps. aeruginosa AK 109; [5]): 0.2 µg/mL
MIC (Ps. aeruginosa AKR17; [6]): 100 µg/mL
MIC (Ps. aeruginosa IF03445): 0.78 µg/mL

Nc1nc(/C(=N/OCc2ccccc2)C(=O)N[C@@H]2C(=O)N3C(C(=O)O)=C(CSc4nnc(-c5ccc(O)c(O)c5)s4)CS[C@H]23)cs1 [Ex. 32, 7β-[2-(2-aminothiazol-4-yl)-2-benzyloxviminoacetamido]-3-[5-(3,4-dihydroxvphenvl)-1,3,4-thiadiazol-2-yl]thiomethyl-3-cephem-4-carboxylic acid trifluoroacetate]
MIC (E. cloacae 963; [7]): 0.1 µg/mL
MIC (M. morganii GN5407): 0.1 µg/mL
MIC (E. cloacae Nek 39): 0.2 µg/mL
MIC (K. oxytoca GN10650): 0.39 µg/mL
MIC (P. vulgaris No. 33): 0.2 µg/mL
MIC (S. aureus 209P NIHJ-JC1; [3]): 0.39 µg/mL
MIC (P. vulgaris HX-19): 0.0125 µg/mL
MIC (K. pneumoniae PCI-602): < 0.006 µg/mL
MIC (S. marcescens No. 16-2; [3]): 12.5 µg/mL
MIC (K. pneumoniae No. 42; [8]): 0.0125 µg/mL
MIC (S. marcescens IAM 1184; [9]): 0.025 µg/mL
MIC (E. coli NIHJ JC2): 0.39 µg/mL
MIC (E. coli GN5482; [10]): 0.78 µg/mL
MIC (Ps. cepacia 23; [11]): < 0.006 µg/mL
MIC (A. calcoaceticus No. 4; [4]): 0.39 µg/mL
MIC (E. coli CSH2 (RK1)): < 0.006 µg/mL
MIC (E. coli CSH(RE45)): 1.56 µg/mL
MIC (Ps. aeruginosa AK 109; [3]): 0.39 µg/mL
MIC (Ps. aeruginosa AKR17; [6]): > 100 µg/mL
MIC (Ps. aeruginosa IF03445): 0.78 µg/mL

Nc1nc(/C(=N/OC2(C(=O)O)CC2)C(=O)N[C@@H]2C(=O)N3C(C(=O)O)=C(CSc4nnc(-c5ccc(O)c(O)c5)s4)CS[C@H]23)cs1 [Ex. 35, disodium 7β-[2-(2-aminothiazol-4-yl)-2-(1-carboxylate-1-cyclooropoxyimino)acetamido]-3-[5-(3,4-dihydroxyphenyl)-1,3,4-thiadiazol-2-yl]thiomethyl-3-cephem-4-carboxylate]
MIC (E. cloacae 963; [1]): 0.05 µg/mL
MIC (M. morganii GN5407): 0.05 µg/mL
MIC (E. cloacae Nek 39): 0.05 µg/mL
MIC (K. oxytoca GN10650): 0.025 µg/mL
MIC (P. vulgaris No. 33): 0.0125 µg/mL
MIC (S. aureus 209P NIHJ-JC1; [3]): 12.5 µg/mL
MIC (P. vulgaris HX-19): < 0.006 µg/mL
MIC (K. pneumoniae PCI-602): < 0.006 µg/mL
MIC (S. marcescens No. 16-2; [3]): 0.39 µg/mL
MIC (K. pneumoniae No. 42; [8]): 0.0125 µg/mL
MIC (S. marcescens IAM 1184; [9]): 0.025 µg/mL
MIC (E. coli NIHJ JC2): 0.2 µg/mL
MIC (E. coli GN5482; [3]): 0.39 µg/mL
MIC (Ps. cepacia 23; [11]): < 0.006 µg/mL
MIC (A. calcoaceticus No. 4; A. calcoaceticus No. 4, read-out: Minimum Inhibitory Concentration (MIC)): 0.05 µg/mL
MIC (E. coli CSH2 (RK1)): < 0.006 µg/mL
MIC (E. coli CSH(RE45)): < 0.006 µg/mL
MIC (Ps. aeruginosa AK 109; [5]): 0.2 µg/mL
MIC (Ps. aeruginosa AKR17; AKR17, 16 h, read-out: Minimum Inhibitory Concentration (MIC), Ps. aeruginosa AKR17): 1.56 µg/mL
MIC (Ps. aeruginosa IF03445): 0.39 µg/mL

CC(C)ON=C(C(=O)NC1C(=O)N2C(C(=O)O)=C(CSc3nc(-c4ccc(O)c(O)c4)cs3)CSC12)c1csc(N)n1 (stereo not drawn) [Ex. 41, sodium 7β-[2-(2-aminothiazol-4-yl)-2-isooropoxyiminoacetamido]-3-[4-(3,4-dihydroxyphenyl)-thiazol-2-yl]thiomethyl-3-cechem-4-carboxylate]
MIC (E. cloacae 963; [7]): 0.1 µg/mL
MIC (M. morganii GN5407): 0.05 µg/mL
MIC (E. cloacae Nek 39): 0.2 µg/mL
MIC (K. oxytoca GN10650): 0.39 µg/mL
MIC (P. vulgaris No. 33): 0.05 µg/mL
MIC (S. aureus 209P NIHJ-JC1; [2]): 1.56 µg/mL
MIC (P. vulgaris HX-19): 0.025 µg/mL
MIC (K. pneumoniae PCI-602): < 0.006 µg/mL
MIC (S. marcescens No. 16-2; [12]): 6.25 µg/mL
MIC (K. pneumoniae No. 42; [8]): 0.1 µg/mL
MIC (S. marcescens IAM 1184; [9]): 0.05 µg/mL
MIC (E. coli NIHJ JC2): 0.2 µg/mL
MIC (E. coli GN5482; [10]): 0.78 µg/mL
MIC (Ps. cepacia 23; [11]): 0.05 µg/mL
MIC (A. calcoaceticus No. 4; [4]): 0.39 µg/mL
MIC (E. coli CSH2 (RK1)): 0.0125 µg/mL
MIC (E. coli CSH(RE45)): < 0.006 µg/mL
MIC (Ps. aeruginosa AK 109; [3]): 0.39 µg/mL
MIC (Ps. aeruginosa AKR17; [6]): 50 µg/mL
MIC (Ps. aeruginosa IF03445): 0.78 µg/mL

C=CCON=C(C(=O)NC1C(=O)N2C(C(=O)O)=C(CSc3nc(-c4ccc(O)c(O)c4)cs3)CSC12)c1csc(N)n1 (stereo not shown) [Ex. 42, sodium 78-[2-allyloxyimino-2-(2-aminothiazol-4-yl)acetamido]-3-[4-(3,4-dihydroxyphenyl)-thiazol-2-yl]thiomethyl-3-cephem-4-carboxylate]
MIC (E. cloacae 963; [1]): 0.05 µg/mL
MIC (M. morganii GN5407): 0.05 µg/mL
MIC (E. cloacae Nek 39): 0.39 µg/mL
MIC (K. oxytoca GN10650): 3.12 µg/mL
MIC (P. vulgaris No. 33): 0.05 µg/mL
MIC (S. aureus 209P NIHJ-JC1; [2]): 0.78 µg/mL
MIC (P. vulgaris HX-19): 0.0125 µg/mL
MIC (K. pneumoniae PCI-602): < 0.006 µg/mL
MIC (S. marcescens No. 16-2; [12]): 6.25 µg/mL
MIC (K. pneumoniae No. 42; [8]): 0.2 µg/mL
MIC (S. marcescens IAM 1184; [9]): 0.05 µg/mL
MIC (E. coli NIHJ JC2): 0.2 µg/mL
MIC (E. coli GN5482; [10]): 0.78 µg/mL
MIC (Ps. cepacia 23; [11]): 0.1 µg/mL
MIC (A. calcoaceticus No. 4; [4]): 0.39 µg/mL
MIC (E. coli CSH2 (RK1)): 0.025 µg/mL
MIC (E. coli CSH(RE45)): 0.025 µg/mL
MIC (Ps. aeruginosa AK 109; read-out: Minimum Inhibitory Concentration (MIC), Ps. aeruginosa AK 109, 10^6 CFU/ml): 0.78 µg/mL
MIC (Ps. aeruginosa AKR17; [6]): 100 µg/mL
MIC (Ps. aeruginosa IF03445): 0.78 µg/mL
